# According to US10774080B2, “Pyrimidine compound as JAK kinase inhibitor” (THERAVANCE BIOPHARMA R&D IP, LLC, priority 2017, dated 2020):
# Key:
# CXCL10 gene expression = assay: Assay 7: ex vivo JAK PD assay, freshly excised human skin, CXCL10; details: 0.5% ointment, about 40 hours continuous exposure, Th1-skewed stimulation (TNFα, IFNγ, IL-12), vs vehicle
# Description: Assay 7: Ex Vivo JAK Pharmacodynamic (PD) Assay Using Human Freshly Excised Skin An ex vivo JAK pharmacodynamics (PD) assay was conducted using human isolated skin tissue. The PD assay used fresh human skin (dermatome of 750 μm thickness) that was mounted in static Franz cells with a surface area of ˜0.5 cm^2. The receiver chambers of the Franz cells were filled with warm (37° C.) cornification media and placed in an incubator at 37° C. The skin was topically dosed with 10 μL ([…]) of compound (I) or vehicle and was left undisturbed overnight (˜24 hours). The next day, with no re-application of the test compound or vehicle, the media was replaced with a Th1-skewed stimulation cocktail consisting of TNFα, IFNγ and IL-12. The skin was left undisturbed for an additional 16 hours, and then harvested and processed for RNA extraction and qPCR of biomarkers: CXCL10, CCL2. GAPDH was used as an internal standard. The compound (I) was formulated in an ointment formulation at 0.5% strength. A total of three skin donors (tested in quadruplicates/sample/treatment) were used. Treatment effect was calculated as the percent increase or decrease in stimulation compared to the vehicle group. [table]
# [1] = Assay 8: human skin permeability assay (MedFlux-HT flow-through diffusion cell); assay type: in vitro ADME; details: 0.5% Ointment
# Description: Assay 8: Human Skin Permeability Assay The objective of this experiment was to assess the percutaneous absorption of test compounds through human skin following topical application. The model uses excised human skin mounted in specially designed diffusion chambers (static or flow-through) that allow the skin to be maintained at a temperature and humidity that match real use conditions. The formulation was applied to the surface of the skin and the penetration of the drug is measured by monitoring its rate of appearance in the receptor solution flowing underneath the skin samples. This in vitro system allows carefully control of many of the potential variables involved in topical application, such as dosing volumes, humidity, temperature, drug stability, and skin thickness. […] This system was developed to specifically minimize the dosing area during in vitro experiments, thus allowing more dosing replications within the limited surface area of ex vivo human skin. The diffusion cells were placed in cell warming supports and heated using a circulating water bath in order to maintain the skin surface temperature at approx. 32° C. The cells were connected to multi-channel peristaltic pumps and maintained at a flow-rate of approximately 10 μL/min (600 μL/hr) for a continuous flow of receiver fluid directly under the skin. Following continuous sampling over 24 h, samples were assayed for test compound levels by LC-MS/MS. The test compound was detected in receiver fluid from […] following application of test ointment formulation (n=5). The ointment used is disclosed in Assay 7. The receiver fluid was PBS with 0.1% Brij.
# [2] = system: IL-31-induced production of pSTAT3 in mouse skin; assay: Assay 9: in vivo IL-31-pSTAT3 JAK target engagement in mice; design: species or system Balb/c mice; details: topical ointment 25 μl/cm^2, 30 minutes before intradermal IL-31, biopsy one hour after IL-31
# Excerpt: Assay 9: In Vivo IL-31-pSTAT3 JAK Target Engagement Assay in Mice
# An in vivo model of IL-31-induced production of phosphorylated signal transducer and activator of transcription 3 (pSTAT3) in mice was used to assess local target engagement on mouse skin.
# (§1) The JAK/STAT (janus kinase/signal transducer and activator of transcription) signaling pathway is a key element in the communication between immune cells and is mainly activated through cytokine receptors. Binding of cytokine IL-31 leads to the activation and phosphorylation of JAK1/JAK2 tyrosine kinases which in turn leads to the phosphorylation of STAT3 (pSTAT3). The activated STAT then translocates into the nucleus and directly regulates the transcription of cytokine-sensitive genes. In these studies, Balb/c mice were dosed with an ointment formulation of compound (I). Ointment vehicle (Table 9) or compound (I) formulated in the ointment vehicle was applied topically to shaved skin (25 μl/cm^2) 30 minutes before the intradermal injection (50 μl/1×1 cm2 site) of IL-31 (1 μg/ml) at a 1×1 cm^2 shaved area of skin on the back between the ears. One hour after IL-31, skin biopsies were collected. The tissue samples were flash frozen and analyzed for pSTAT3 by ELISA and compound concentration. Compound (I) inhibited pSTAT3 production by 80% and the skin tissue concentration of compound (I) was 62 μM.
# [3] = Assay 9: skin tissue concentration in mice; assay type: in vivo; details: Balb/c, mouse, topical ointment 25 μl/cm^2, biopsy one hour after IL-31
# Excerpt: as §1
# [4] = system: IL-2 stimulated STAT5 phosphorylation in Tall-1 human T cell line; assay: Assay 11: inhibition of IL-2 stimulated pSTAT5 in Tall-1 T cells; assay type: cell-based; details: read-out: pIC50 for inhibition of IL-2 induced STAT5 phosphorylation (converted)
# Description: Assay 11: Inhibition of IL-2 Stimulated pSTAT5 in Tall-1 T Cells
# The potency of test compounds for inhibition of interleukin-2 (IL-2) stimulated STAT5 phosphorylation was measured in the Tall-1 human T cell line (DSMZ) using AlphaLisa. Because IL-2 signals through JAK1/3, this assay provides a measure of JAK1/3 cellular potency.
# Phosphorylated STAT5 was measured via the AlphaLISA SureFire Ultra pSTAT5 (Tyr694/699) kit (PerkinElmer).
# Human T cells from the Tall-1 cell line were cultured in a 37° C., 5% CO2 humidified incubator in RPMI (Life Technologies) supplemented with 15% Heat Inactivated Fetal Bovine Serum (FBS, Life Technologies), 2 mM Glutamax (Life Technologies), 25 mM HEPES (Life Technologies) and 1× Pen/Strep (Life Technologies). […] Phosphorylated STAT5 was measured via the pSTAT5 AlphaLisa kit (PerkinElmer). […] Luminescence was measured with excitation at 689 nm and emission at […] using an EnVision plate reader (PerkinElmer) under green filtered <100 lux light.
# To determine the inhibitory potency of test compounds in response to IL-2, the average emission intensity of beads bound to pSTAT5 was measured in a human T cell line. IC50 values were determined from analysis of the inhibition curves of signal intensity versus compound concentration. Data are expressed as pIC50 (negative decadic logarithm IC50) values (mean±standard deviation).
compound,measurement,setting,value
"CCS(=O)(=O)N1[C@@H]2CCC[C@H]1C[C@H](N(C)c1nc(CO)c(F)c(Nc3cc(C)[nH]n3)n1)C2 [Compound (I), (2-(((1R,3s,5S)-9-(ethylsulfonyl)-9-azabicyclo[3.3.1]nonan-3-yl)(methyl)amino)-5-fluoro-6-((5-methyl-1H-pyrazol-3-yl)amino)pyrimidin-4-yl)methanol]",PD-% Inhibition (mean ± SD) CXCL10,CXCL10 gene expression,90.1%
same,permeability in human skin assay (in words),[1],good permeability
same,"MedFlux Permeability, flux permeating through 1 cm2 of human skin (Mean)","[1]; n=5, receiver fluid PBS with 0.1% Brij",39.1 ng/cm2/sec
same,permeability in human skin assay (in words),[1]; listed as compound (I),adequate permeability
same,inhibition of IL-31-induced pSTAT3 production,[2],80%
same,concentration at 1.5 h,[3],62 µM
same,IC50,[4],3.98 nM
